How the values were obtained:
Type in all cases: cell-based, human
[1] = tested on: adipose mesenchymal stem cells; experiment: FACS analysis of surface marker expression after suspension in saline containing aspirin lysine and cold storage
Description: (§1) The adipose mesenchymal stem cells isolated in Example 1 were treated with trypsin, and then suspended at a concentration of 1.0×10^7 cells in physiological saline containing varying concentrations of aspirin lysine (Shin Poong Pharm. Co., Ltd, Korea). Then, the cells were incubated for 5 days, and the cell count of the cells was measured. In addition, the cells were cold-stored for 24 hours, and then the characteristics of the cells were analyzed by FACS.

[2] = tested on: adipose mesenchymal stem cells; experiment: Viability and cell count after 5 days of incubation following suspension in saline containing aspirin lysine; conditions: varying concentrations in physiological saline
Description: as §1

[3] = tested on: adipose mesenchymal stem cells; experiment: Viability of stem cells suspended in physiological saline containing acetylsalicylic acid
Description: The adipose mesenchymal stem cells isolated in Example 1 were treated with trypsin, and then suspended at a concentration of 1.0×10^7 cells in physiological saline containing varying concentrations of acetylsalicylic acid (Sigma; A5376), after which the viability of the cells at 12 hours and 24 hours after the suspension was observed. The physiological saline containing acetylsalicylic acid was prepared by adding acetylsalicylic acid to physiological saline at varying concentrations and sonicating it at 37° C. for 30 minutes.

[4] = 0.1 mg/10 ml, cold-stored for 24 hours, FACS

SMILES	Expression rate CD29 [1, 4] [%]	Expression rate CD31 [1, 4] [%]	Expression rate CD44 [1, 4] [%]	Expression rate CD45 [1, 4] [%]	Expression rate CD90 [1, 4] [%]	Expression rate CD105 [1, 4] [%]	characteristics of the adipose mesenchymal stem cells (FACS) ([1]; suspended 24 hours in aspirin-containing saline, then cold-stored 24 hours)	cell viability depending on concentration [2]	count of the cells after 5 days of incubation [2]	cytotoxicity ([3]; 1.0 mg or more added to 10 ml of physiological saline)	Viability ([3]; 1.0 mg/10 ml in physiological saline, 12 hours after suspension) [%]	Viability ([3]; 1.0 mg/10 ml in physiological saline, 24 hours after suspension) [%]	Viability ([3]; 2.0 mg/10 ml in physiological saline, 12 hours after suspension) [%]	Viability ([3]; 2.0 mg/10 ml in physiological saline, 24 hours after suspension) [%]	Viability ([3]; 5.0 mg/10 ml in physiological saline, 12 hours after suspension) [%]	Viability ([3]; 5.0 mg/10 ml in physiological saline, 24 hours after suspension) [%]
CC(=O)Oc1ccccc1C(=O)O [aspirin lysine]	99.97	0.21	99.25	0.17	99.66	99.89	not dependent on the concentration of aspirin lysine	somewhat decreased depending on the concentration of aspirin lysine, but this decrease was not significant	did not almost differ between the concentrations of aspirin lysine	–	–	–	–	–	–	–
CC(=O)Oc1ccccc1C(=O)O [acetylsalicylic acid]	–	–	–	–	–	–	–	–	–	cytotoxic	50	10	20	10	10	5

Reference: patent publication US20160081917A1, “STEM CELL COMPOSITION FOR VENOUS ADMINISTRATION” (K-STEMCELL CO., LTD, priority 2013, published 2016)
